Measurements from ChEMBL document CHEMBL1144986, “Binding of beta-carbolines at 5-HT(2) serotonin receptors” (Bioorg Med Chem Lett, 2003).

biological target: T1, 5-hydroxytryptamine receptor 2A (Rattus norvegicus, UniProt P14842); assay: Binding affinity for rat 5-hydroxytryptamine 2A receptor using [3H]DOB
T1 sequence (P14842 whole entry): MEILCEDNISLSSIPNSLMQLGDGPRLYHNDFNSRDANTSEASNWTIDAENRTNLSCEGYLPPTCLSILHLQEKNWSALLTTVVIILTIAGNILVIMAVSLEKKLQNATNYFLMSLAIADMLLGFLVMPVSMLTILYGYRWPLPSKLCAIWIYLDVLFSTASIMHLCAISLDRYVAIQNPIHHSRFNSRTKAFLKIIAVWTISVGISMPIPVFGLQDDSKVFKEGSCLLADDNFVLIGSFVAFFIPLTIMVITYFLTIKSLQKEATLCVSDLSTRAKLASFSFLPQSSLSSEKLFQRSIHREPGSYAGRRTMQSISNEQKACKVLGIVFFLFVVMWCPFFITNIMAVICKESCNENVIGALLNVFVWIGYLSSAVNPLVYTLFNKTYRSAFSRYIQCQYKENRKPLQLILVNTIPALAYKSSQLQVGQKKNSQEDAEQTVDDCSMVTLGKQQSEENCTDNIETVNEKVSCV

Q: How did the Ki turn out when `Brc1cccc2c3c([nH]c12)CNCC3` was run?
A: The Ki was 21 nM.

Q: Which Ki does the source give for `COc1ccc2c3c([nH]c2c1)C=NCC3` [CGS-19281A] here?
A: The Ki was over 10000 nM.

Q: With `c1ccc2c3c([nH]c2c1)CNCC3` [TRYPTOLINE] as the molecule, how does the Ki read?
A: Its Ki is 3000 nM.

biological target: T1, 5-hydroxytryptamine receptor 2A; assay: Binding affinity towards cloned rat 5-hydroxytryptamine 2A receptor by [3H]ketanserin displacement.

Q: How did the Ki turn out when `Brc1cccc2[nH]c3c(c12)CCN=C3` was run?
A: Its Ki is 390 nM.

Q: Which Ki does the source give for `CC1=NCCc2c1[nH]c1cccc(OC(C)C)c21` here?
A: The Ki was 470 nM.

Q: For `C1=NCCc2c1[nH]c1cccc(OCc3ccccc3)c21`, which Ki is on record?
A: Its Ki is 124 nM.

Q: How did the Ki turn out when `Brc1ccc2c3c([nH]c2c1)C=NCC3` was run?
A: Its Ki is 1330 nM.

Q: How did the Ki turn out when `Brc1ccc2c3c([nH]c2c1)CNCC3` was run?
A: Its Ki is 240 nM.

Q: Which Ki does the source give for `Brc1ccc2[nH]c3c(c2c1)CCNC3` here?
A: Its Ki is 500 nM.

Q: For `Brc1ccc2[nH]c3c(c2c1)CCN=C3`, which Ki is on record?
A: Its Ki is 1720 nM.

Q: `COc1ccc2[nH]c3c(c2c1)CCN=C3` was tested. Which Ki did it give?
A: The Ki was 2370 nM.

Q: `Brc1cccc2c3c([nH]c12)CNCC3` was tested. Which Ki did it give?
A: Its Ki is 22 nM.

Q: Which Ki does the source give for `COc1ccc2c3c([nH]c2c1)C=NCC3` [CGS-19281A] here?
A: The Ki was over 10000 nM.

Q: How did the Ki turn out when `c1ccc2c3c([nH]c2c1)CNCC3` [TRYPTOLINE] was run?
A: Its Ki is 3800 nM.

biological target: T1, 5-hydroxytryptamine receptor 2A; assay: Binding affinity towards cloned rat Inhibition of binding towards 5-hydroxytryptamine 2A receptor at 100 nM concentration was determined using [3H]ketanserin as radioligand

Q: With `C1=NCCc2c1[nH]c1ccccc21` as the molecule, how does the Ki read?
A: The Ki was 2560 nM.

biological target: T1, 5-hydroxytryptamine receptor 2A; assay: Binding affinity towards cloned rat Inhibition of binding towards 5-hydroxytryptamine 2A receptor at 100 nM concentration was determined using [3H]DOB as radioligand

Q: Which Ki does the source give for `C1=NCCc2c1[nH]c1ccccc21` here?
A: The Ki was 2150 nM.

biological target: T2, 5-hydroxytryptamine receptor 2C (Rattus norvegicus, UniProt P08909); assay: Binding affinity towards cloned rat 5-hydroxytryptamine 2C receptor from fundus tissue by [3H]mesulergine displacement.
T2 sequence (P08909 whole entry): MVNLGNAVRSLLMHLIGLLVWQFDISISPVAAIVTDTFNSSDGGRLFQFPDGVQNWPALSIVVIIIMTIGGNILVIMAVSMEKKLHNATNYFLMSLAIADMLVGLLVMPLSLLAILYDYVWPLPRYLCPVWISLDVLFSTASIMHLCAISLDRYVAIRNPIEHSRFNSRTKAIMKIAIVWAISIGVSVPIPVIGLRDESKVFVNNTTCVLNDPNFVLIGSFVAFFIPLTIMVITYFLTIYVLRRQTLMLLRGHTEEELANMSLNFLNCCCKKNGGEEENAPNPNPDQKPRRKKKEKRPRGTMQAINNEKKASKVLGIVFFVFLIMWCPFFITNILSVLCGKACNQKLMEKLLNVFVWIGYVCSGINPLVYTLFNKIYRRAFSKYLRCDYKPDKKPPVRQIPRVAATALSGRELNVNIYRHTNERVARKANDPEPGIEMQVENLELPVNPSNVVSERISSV

Q: `C1=NCCc2c1[nH]c1ccccc21` was tested. Which Ki did it give?
A: The Ki was 1100 nM.

Q: How did the Ki turn out when `Brc1cccc2[nH]c3c(c12)CCN=C3` was run?
A: Its Ki is 140 nM.

Q: Which Ki does the source give for `CC1=NCCc2c1[nH]c1cccc(OC(C)C)c21` here?
A: Its Ki is 26 nM.

Q: With `C1=NCCc2c1[nH]c1cccc(OCc3ccccc3)c21` as the molecule, how does the Ki read?
A: Its Ki is 200 nM.

Q: For `Brc1ccc2c3c([nH]c2c1)C=NCC3`, which Ki is on record?
A: Its Ki is 2100 nM.

Q: For `Brc1ccc2c3c([nH]c2c1)CNCC3`, which Ki is on record?
A: Its Ki is 250 nM.

Q: Which Ki does the source give for `Brc1ccc2[nH]c3c(c2c1)CCNC3` here?
A: The Ki was 210 nM.

Q: With `Brc1ccc2[nH]c3c(c2c1)CCN=C3` as the molecule, how does the Ki read?
A: Its Ki is 1200 nM.

Q: `COc1ccc2[nH]c3c(c2c1)CCN=C3` was tested. Which Ki did it give?
A: The Ki was 1170 nM.

Q: Which Ki does the source give for `Brc1cccc2c3c([nH]c12)CNCC3` here?
A: The Ki was 48 nM.

Q: Which Ki does the source give for `COc1ccc2c3c([nH]c2c1)C=NCC3` [CGS-19281A] here?
A: Its Ki is over 10000 nM.

Q: With `c1ccc2c3c([nH]c2c1)CNCC3` [TRYPTOLINE] as the molecule, how does the Ki read?
A: The Ki was over 10000 nM.
